The record followed here is US11028066B2, “Inhibitors of lysine specific demethylase-1” (CELGENE QUANTICEL RESEARCH, INC., priority 2014, dated 2021).

The target in one assay is full-length human LSD1 (Homo sapiens (Human), UniProt O60341). Put plainly: In vitro enzyme inhibition assay LSD-1 (TR-FRET). The format is biochemical. Conditions: H3K4me1-biotin peptide. The method, then:
This assay determines the ability of a test compound to inhibit LSD1 demethylase activity.
The enzymatic assay of LSD1 activity is based on Time Resolved-Fluorescence Resonance Energy Transfer (TR-FRET) detection.
Plates were read by EnVision Multilabel Reader in TR-FRET mode (excitation at 320 nm, emission at 615 nm and 665 nm) after 1 hour incubation at room temperature.
The ability of the compounds disclosed herein to inhibit LSD1 activity was quantified and the respective IC50 value was determined.

The next assay deals with THP-1 (AML) cells. Kind of assay: LSD1 CD11b cellular assay (flow cytometry). Conditions: Homo sapiens, THP-1, 96 h; CD11b expressing cells, 4 days incubation. The format is cell-based. Here is the method: To analyze LSD1 inhibitor efficacy in cells, a CD11b flow cytometry assay was performed. LSD1 inhibition induces CD11b expression in THP-1 (AML) cells which can be measured by flow cytometry. […] LSD1 test compounds were serially diluted in DMSO. The dilutions were added to each well accordingly to a final concentration of 0.2% DMSO. The cells were incubated at 37 degrees Celsius in 5% CO2 for 4 days. 250 μL of each well was transferred to a well in a 96 well round bottom plate. The plate was centrifuged at 1200 rpm at 4 degrees Celsius in a Beckman Coulter Alegra 6KR centrifuge for 5 minutes. The media was removed leaving the cells at the bottom of the wells. The cells were washed in 100 μL cold HBSS (Hank's Balanced Salt Solution) plus 2% BSA (Bovine Serum Albumin) solution and centrifuged at 1200 rpm at 4 degrees Celsius for 5 minutes. The wash was removed. […] The cells were centrifuged and washed two times in 100 μL HBSS plus 2% BSA. After the final spin the cells were resuspended in 100 μL HBSS plus 2% BSA containing 1 ug/mL DAPI (4′,6-diamidino-2-phenylindole). The cells were then analyzed by flow cytometry in a BD FACSAria machine. Cells were analyzed for CD11b expression. The percent of CD11b expressing cells for each inhibitor concentration was used to determine an IC50 curve for each compound analyzed.
On the technique in general: In flow cytometry, cells or beads pass a laser one at a time.

One may read the IC50 as the midpoint of a concentration-inhibition curve. Read a high IC50 as weaker potency in that assay. Consider `C[C@H](c1ccccc1)n1cc(-c2ccc(C#N)cc2)nc(N2CCC(N)CC2)c1=O` [Example 12, 4-[6-(4-aminopiperidin-1-yl)-5-oxo-4-[(1R)-1-phenylethyl]-4,5-dihydropyrazin-2-yl]benzonitrile], for which the concentration for half-maximal inhibition (IC50) against full-length human LSD1 is less than 100 nM; with THP-1 (AML) cells it was 1000 to 10000 nM.

As to `CCn1c(-c2ccc(C)cc2)c(-c2ccc(C#N)cc2)nc(N2CCC(N)CC2)c1=O` [Example 26, 4-[6-(4-aminopiperidin-1-yl)-4-ethyl-3-(4-methylphenyl)-5-oxo-4,5-dihydropyrazin-2-yl]benzonitrile], the IC50 against full-length human LSD1 and in the assay on THP-1 (AML) cells was less than 100 nM in each case.

As for `Cc1ccc(-c2c(-c3ccc(C#N)cc3)nc(NC[C@@H]3CCNC3)c(=O)n2C)cc1` [Example 18, 4-[4-methyl-3-(4-methylphenyl)-5-oxo-6-{[(3R)-pyrrolidin-3-ylmethyl]amino}-4,5-dihydropyrazin-2-yl]benzonitrile], the IC50 against full-length human LSD1 and in the assay with THP-1 (AML) cells was less than 100 nM in each case.

As for `COc1ccc(-c2c(-c3ccc(C#N)c(F)c3)nc(N3CCC(N)CC3)c(=O)n2CC(N)=O)cc1` [Example 88, 2-[3-(4-aminopiperidyl)-5-(4-cyano-3-fluorophenyl)-6-(4-methoxyphenyl)-2-oxohydropyrazinyl]acetamide], the half-inhibitory concentration (IC50) on full-length human LSD1 and with THP-1 (AML) cells was less than 100 nM in each case.

`COCCn1c(-c2ccc(C)cc2)c(-c2ccc(C#N)c(F)c2)nc(NC[C@H]2CCNC2)c1=O` [Example 43, 4-(6-{[((3S)-pyrrolidin-3-yl)methyl]amino}-4-(2-methoxyethyl)-3-(4-methylphenyl)-5-oxo(4-hydropyrazin-2-yl))-2-fluorobenzenecarbonitrile]: the IC50 at full-length human LSD1 and in the assay on THP-1 (AML) cells was less than 100 nM throughout.

With `Cn1c(-c2ccc(C3CC3)cc2)c(-c2ccc(C#N)nc2)nc(NC[C@H]2CCNC2)c1=O` [Example 58, 5-{3-(4-cyclopropyl-phenyl)-4-methyl-5-oxo-6-[((3S)-pyrrolidin-3-ylmethyl)-amino]-4,5-dihydro-pyrazin-2-yl}-pyridine-2-carbonitrile], the IC50 is less than 100 nM at full-length human LSD1 and 100 to 1000 nM in the assay on THP-1 (AML) cells.

`Cc1ccc(-c2c(-c3ccc(C#N)cc3)nc(N3CCC(N)CC3)c(=O)n2CCO)cc1` [Example 37, 4-[6-(4-amino-piperidin-1-yl)-4-(2-hydroxy-ethyl)-5-oxo-3-p-tolyl-4,5-dihydro-pyrazin-2-yl]-benzonitrile]: the IC50 against full-length human LSD1 and in the assay with THP-1 (AML) cells was less than 100 nM throughout.

Turning to `COc1ccc(-c2c(-c3ccc(C#N)nc3)nc(NC[C@H]3CCNC3)c(=O)n2C)cc1` [Example 54, 5-{3-(4-methoxy-phenyl)-4-methyl-5-oxo-6-[((3S)-pyrrolidin-3-ylmethyl)-amino]-4,5-dihydro-pyrazin-2-yl}-pyridine-2-carbonitrile], the IC50 against full-length human LSD1 and in the assay on THP-1 (AML) cells was less than 100 nM each time.

As to `CNC1CCN(c2nc(-c3ccc(C#N)c(F)c3)c(-c3ccc(C)cc3)n(CCCO)c2=O)CC1` [Example 64, 2-Fluoro-4-[4-(3-hydroxy-propyl)-6-(4-methylamino-piperidin-1-yl)-5-oxo-3-p-tolyl-4,5-dihydro-pyrazin-2-yl]-benzonitrile], the IC50 at full-length human LSD1 and in the assay on THP-1 (AML) cells was less than 100 nM throughout.

For `Cc1ccc(-c2c(-c3ccc(C#N)cc3)nc(N3CCC4CNCC4C3)c(=O)n2C)cc1` (stereo not shown) [Example 23, 4-[4-methyl-3-(4-methylphenyl)-6-{octahydro-1H-pyrrolo[3,4-c]pyridin-5-yl}-5-oxo-4,5-dihydropyrazin-2-yl]benzonitrile], the 50% inhibitory concentration (IC50) against full-length human LSD1 and with THP-1 (AML) cells was less than 100 nM throughout.

As for `N#Cc1ccc(-c2cn(CC3CCOC3)c(=O)c(N3CCC(N)CC3)n2)cc1F` (stereo not shown) [Example 14, 4-[6-(4-amino-piperidin-1-yl)-5-oxo-4-(tetrahydro-furan-3-ylmethyl)-4,5-dihydro-pyrazin-2-yl]-2-fluoro-benzonitrile], the concentration for half-maximal inhibition (IC50) was less than 100 nM against full-length human LSD1 and 100 to 1000 nM in the assay on THP-1 (AML) cells.

Turning to `CCn1c(-c2ccc(OC)cc2)c(-c2ccc(C#N)c(F)c2)cc(N2CCC(N)CC2)c1=O` [Example 87, 4-[5-(4-aminopiperidin-1-yl)-1-ethyl-2-(4-methoxyphenyl)-6-oxopyridin-3-yl]-2-fluorobenzonitrile], the IC50 in the assay with THP-1 (AML) cells is less than 100 nM.

As to `Cc1ccc(-c2c(-c3ccc(C#N)nc3)nc(N3CCC(N)CC3)c(=O)n2C)cc1` [Example 19, 5-[6-(4-aminopiperidin-1-yl)-4-methyl-3-(4-methylphenyl)-5-oxo-4,5-dihydropyrazin-2-yl]pyridine-2-carbonitrile], the 50% inhibitory concentration (IC50) against full-length human LSD1 and with THP-1 (AML) cells was less than 100 nM throughout.

On to `N#Cc1ccc(-c2nc(N3CCC(N)CC3)c(=O)n(CCO)c2-c2ccc(C3CC3)cc2)cc1` [Example 38, 4-[6-(4-amino-piperidin-1-yl)-3-(4-cyclopropyl-phenyl)-4-(2-hydroxy-ethyl)-5-oxo-4,5-dihydro-pyrazin-2-yl]-benzonitrile], for which the half-inhibitory concentration (IC50) against full-length human LSD1 and in the assay with THP-1 (AML) cells was less than 100 nM throughout.

Consider `N#Cc1ccc(-c2cn(Cc3cccc(Cl)c3)c(=O)c(N3CCC(N)CC3)n2)cc1` [Example 4, 4-[6-(4-aminopiperidin-1-yl)-4-(3-chloro-benzyl)-5-oxo-4,5-dihydro-pyrazin-2-yl]-benzonitrile], for which the results for the IC50 at full-length human LSD1 and with THP-1 (AML) cells were less than 100 nM and 1000 to 10000 nM, respectively.

As for `CNC1CCN(c2cc(-c3ccc(C#N)cc3)c(-c3ccc(C)cc3)n(C)c2=O)CC1` [Example 80, 4-{1-methyl-5-[4-(methylamino)piperidyl]-2-(4-methylphenyl)-6-oxo-3-hydropyridyl}benzenecarbonitrile], the 50% inhibitory concentration (IC50) on full-length human LSD1 and in the assay on THP-1 (AML) cells was less than 100 nM in each case.

As to `CCn1c(-c2ccc(OC)cc2)c(-c2ccc(C#N)cc2)cc(N2CCC(N)CC2)c1=O` [Example 82, 4-[5-(4-aminopiperidin-1-yl)-1-ethyl-2-(4-methoxyphenyl)-6-oxopyridin-3-yl]benzonitrile], the 50% inhibitory concentration (IC50) on full-length human LSD1 and with THP-1 (AML) cells was less than 100 nM throughout.

With `Cn1c(-c2ccc(C3CC3)cc2)c(-c2ccc(C#N)nc2)nc(N2CCC(N)CC2)c1=O` [Example 53, 5-[6-(4-amino-piperidin-1-yl)-3-(4-cyclopropyl-phenyl)-4-methyl-5-oxo-4,5-dihydro-pyrazin-2-yl]-pyridine-2-carbonitrile], the half-inhibitory concentration (IC50) at full-length human LSD1 and in the assay with THP-1 (AML) cells was less than 100 nM throughout.

Turning to `COc1ccc(-c2c(-c3ccc(C#N)c(F)c3)cc(N3CCC(N)CC3)c(=O)n2C)cc1` [Example 67, 4-(5-(4-aminopiperidin-1-yl)-2-(4-methoxyphenyl)-1-methyl-6-oxo-1,6-dihydropyridin-3-yl)-2-fluorobenzonitrile], the IC50 against full-length human LSD1 and in the assay with THP-1 (AML) cells was less than 100 nM each time.

On to `Cc1ccc(-c2c(-c3ccc(C#N)cc3)nc(N3CCC4(CCNC4)CC3)c(=O)n2C)cc1` [Example 24, 4-(6-{2,8-diazaspiro[4.5]decan-8-yl}-4-methyl-3-(4-methylphenyl)-5-oxo-4,5-dihydropyrazin-2-yl)benzonitrile], for which the IC50 against full-length human LSD1 and in the assay on THP-1 (AML) cells was less than 100 nM each time.

In the case of `COc1ccc(-c2c(-c3ccc(C#N)cc3)nc(N3CCC(N)CC3)c(=O)n2C)cc1` [Example 30, 4-[6-(4-aminopiperidin-1-yl)-3-(4-methoxyphenyl)-4-methyl-5-oxo-4,5-dihydropyrazin-2-yl]benzonitrile], the IC50 at full-length human LSD1 and in the assay with THP-1 (AML) cells was less than 100 nM throughout.

In the case of `CNC1CCN(c2nc(-c3ccc(C#N)cc3)c(-c3ccc(C)cc3)n(C)c2=O)CC1` [Example 20, 4-{4-methyl-6-[4-(methylamino)piperidin-1-yl]-3-(4-methylphenyl)-5-oxo-4,5-dihydropyrazin-2-yl}benzonitrile], the IC50 on full-length human LSD1 and with THP-1 (AML) cells was less than 100 nM in each case.

Take `CCc1ccc(-c2c(-c3ccc(C#N)c(F)c3)cc(NC[C@H]3CCNC3)c(=O)n2C)cc1` [Example 72, (S)-4-(2-(4-ethylphenyl)-1-methyl-6-oxo-5-(pyrrolidin-3-ylmethylamino)-1,6-dihydropyridin-3-yl)-2-fluorobenzonitrile]: the IC50 on full-length human LSD1 and in the assay on THP-1 (AML) cells was less than 100 nM throughout.

For `CNC1CCN(c2cc(-c3ccc(C#N)c(F)c3)c(-c3ccc(OC)c(F)c3)n(C)c2=O)CC1` [Example 86, 2-fluoro-4-[2-(3-fluoro-4-methoxyphenyl)-1-methyl-5-[4-(methylamino)piperidin-1-yl]-6-oxopyridin-3-yl]benzonitrile], the IC50 on full-length human LSD1 and in the assay on THP-1 (AML) cells was less than 100 nM in each case.

Turning to `Cc1ccc(-c2c(-c3ccc(C#N)cc3)nc(N3CCC4CNCC4CC3)c(=O)n2C)cc1` (stereo not shown) [Example 25, 4-(6-{decahydropyrrolo[3,4-d]azepin-6-yl}-4-methyl-3-(4-methylphenyl)-5-oxo-4,5-dihydropyrazin-2-yl)benzonitrile], the IC50 on full-length human LSD1 and in the assay on THP-1 (AML) cells was less than 100 nM in each case.
